Experimental data as given in patent US8106055B2, “Substituted amide compounds” (Gruenenthal GmbH, priority 2007, dated 2012).

molecular target: T1, bradykinin 1 receptor (B1R) of the rat (Rattus norvegicus, UniProt P97583); assay: Functional investigation on the rat bradykinin 1 receptor (B1R), Ca2+ FLIPR assay in CHO K1 rB1R cells; type: cell-based; conditions: B1R antagonism rat; test substance 10 μM; Ca2+ FLIPR, CHO K1 rB1R cells
T1 construct: expressed in transfected cells; host or cells: CHO K1 cells
T1 sequence (P97583 1-337): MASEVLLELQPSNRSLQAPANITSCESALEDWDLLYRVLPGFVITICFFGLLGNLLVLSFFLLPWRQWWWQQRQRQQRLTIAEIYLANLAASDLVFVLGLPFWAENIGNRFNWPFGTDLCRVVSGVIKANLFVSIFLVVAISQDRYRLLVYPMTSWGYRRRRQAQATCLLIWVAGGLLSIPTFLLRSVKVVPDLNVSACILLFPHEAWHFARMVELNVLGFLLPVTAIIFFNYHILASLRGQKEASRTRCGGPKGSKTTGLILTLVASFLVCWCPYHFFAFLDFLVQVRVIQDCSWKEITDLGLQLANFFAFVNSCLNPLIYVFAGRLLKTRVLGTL
Procedure, shortened: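 Peak Ca2+-dependent fluorescence in B1R-transfected CHO K1 cells measures antagonism of an EC80 agonist challenge given 10-20 min after compound. Agonist is Lys-Des-Arg9-bradykinin for human, Des-Arg9-bradykinin for rat receptor.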

| SMILES | B1R Ant. r [10 μM] % Inhibition [%] |
| --- | --- |
| CN(C)C(c1cccc(F)c1)C1CCC(CCNC(=O)COCCN(Cc2ccccc2)S(=O)(=O)c2ccccc2)CC1 (stereo not drawn) [Example 278] | 7 |
| COc1cc(C)c(S(=O)(=O)N2CCCC(OCC(=O)NC3CCC(C(c4cccc(F)c4)N(C)C)CC3)C2)c(C)c1C (stereo not drawn) [Example 279] | 7 |
| COc1ccc(S(=O)(=O)N2CCCCC2COCC(=O)NCC2CCC(C(c3ccc(Cl)cc3)N(C)C)CC2)c(OC)c1 (stereo not drawn) [Example 280] | 36 |
| COc1ccc(S(=O)(=O)N2CCCCC2COCC(=O)NCCC2CCC(C(c3cccc(F)c3)N(C)C)CC2)c(OC)c1 (stereo not drawn) [Example 281] | 18 |
| CN(C)C(c1cccs1)C1CCC(NC(=O)COCCN(C)S(=O)(=O)c2ccc(OC(F)(F)F)cc2)CC1 (stereo not drawn) [Example 282] | 20 |
| CN(C)C(c1cccc(F)c1)C1CCC(NC(=O)COC2CCN(S(=O)(=O)c3ccc(Cl)cc3Cl)C2)CC1 (stereo not drawn) [Example 283] | 24 |
| CN(C)C(c1ccc(Cl)cc1)C1CCC(CNC(=O)COCCN(C)S(=O)(=O)c2ccc(Cl)cc2)CC1 (stereo not drawn) [Example 284] | 32 |
| CN(C)C(c1ccc(F)cc1)C1CCC(CCNC(=O)COCCN(C)S(=O)(=O)c2c(Cl)cccc2Cl)CC1 (stereo not drawn) [Example 285] | 75 |
| COc1cc(C)c(S(=O)(=O)N2CCC(OCC(=O)NC3CCC(C(c4cccc(F)c4)N(C)C)CC3)CC2)c(C)c1C (stereo not drawn) [Example 286] | −2 |
| COc1cc(C)c(S(=O)(=O)N2CCC(OCC(=O)NCC3CCC(C(c4cccc(F)c4)N(C)C)CC3)CC2)c(C)c1C (stereo not drawn) [Example 287] | −1 |
| COc1ccc(S(=O)(=O)N2Cc3ccccc3CC2COCC(=O)NCC2CCC(C(c3ccc(F)cc3)N(C)C)CC2)cc1 (stereo not drawn) [Example 288] | 20 |
| CN(C)C(c1ccc(Cl)cc1)C1CCC(CCNC(=O)COCCN(C)S(=O)(=O)c2cccc(C(F)(F)F)c2)CC1 (stereo not drawn) [Example 289] | 13 |
| CN(C)C(c1ccc(F)cc1)C1CCC(NC(=O)COC2CCN(S(=O)(=O)c3ccc(Cl)cc3Cl)C2)CC1 (stereo not drawn) [Example 290] | 37 |
| CN(C)C(c1ccc(Cl)cc1)C1CCC(CCNC(=O)COCCN(C)S(=O)(=O)c2ccc(Cl)cc2Cl)CC1 (stereo not drawn) [Example 291] | 36 |
| COc1ccc(S(=O)(=O)N(C)CCOCC(=O)NCCC2CCC(C(c3cccc(F)c3)N(C)C)CC2)cc1 (stereo not drawn) [Example 292] | 34 |
| COc1ccc(S(=O)(=O)N(C)CCOCC(=O)NCCC2CCC(C(c3cccc(F)c3)N(C)C)CC2)cc1OC (stereo not drawn) [Example 293] | 2 |
| CN(C)C(c1ccc(Cl)cc1)C1CCC(CNC(=O)COCC2CCCN(S(=O)(=O)c3ccccc3)C2)CC1 (stereo not drawn) [Example 294] | 32 |
| CN(C)C(c1cccc(F)c1)C1CCC(CCNC(=O)COCC2CCCN(S(=O)(=O)c3ccccc3)C2)CC1 (stereo not drawn) [Example 295] | 44 |
| CN(C)C(c1cccc(F)c1)C1CCC(CNC(=O)COCCN(Cc2ccccc2)S(=O)(=O)c2ccccc2)CC1 (stereo not drawn) [Example 296] | 24 |

| SMILES | B1R Ant. r [10 μM] % Inhibition [%] |
| --- | --- |
| CN(C)C(c1cccc(F)c1)C1CCC(NC(=O)COCCN(C)S(=O)(=O)c2cccc(C(F)(F)F)c2)CC1 (stereo not drawn) [Example 297] | 16 |
| COc1cc(C)c(S(=O)(=O)N(C)CCOCC(=O)NCC2CCC(C(c3ccc(Cl)cc3)N(C)C)CC2)c(C)c1C (stereo not drawn) [Example 298] | 14 |
| CN(C)C(c1ccc(Cl)cc1)C1CCC(CNC(=O)COC2CCN(S(=O)(=O)c3ccccc3)C2)CC1 (stereo not drawn) [Example 299] | −13 |
| CN(C)C(c1ccccc1)C1CCC(CNC(=O)COC2CCN(S(=O)(=O)c3ccccc3)CC2)CC1 (stereo not drawn) [Example 300] | 7 |
| CN(C)C(c1ccc(Cl)cc1)C1CCC(CNC(=O)COC2CCCN(S(=O)(=O)c3ccccc3)C2)CC1 (stereo not drawn) [Example 301] | 18 |
| CN(C)C(c1cccc(F)c1)C1CCC(CNC(=O)COCCN(C)S(=O)(=O)c2cccc(C(F)(F)F)c2)CC1 (stereo not drawn) [Example 302] | 0 |
| CN(C)C(c1cccc(F)c1)C1CCC(CNC(=O)COCCN(C)S(=O)(=O)c2ccc(OC(F)(F)F)cc2)CC1 (stereo not drawn) [Example 303] | 29 |
| Cc1ccc(S(=O)(=O)N2CCC(OCC(=O)NCC3CCC(C(c4ccc(Cl)cc4)N(C)C)CC3)C2)cc1 (stereo not drawn) [Example 304] | 19 |
| Cc1ccc(S(=O)(=O)N2CCC(OCC(=O)NCCC3CCC(C(c4ccc(Cl)cc4)N(C)C)CC3)C2)cc1 (stereo not drawn) [Example 305] | 29 |
| Cc1ccc(S(=O)(=O)N(C)CCOCC(=O)NCCC2CCC(C(c3ccc(Cl)cc3)N(C)C)CC2)cc1 (stereo not drawn) [Example 306] | 14 |
| COc1cc(C)c(S(=O)(=O)N2CCC(OCC(=O)NCCC3CCC(C(c4cccc(F)c4)N(C)C)CC3)C2)c(C)c1 (stereo not drawn) [Example 307] | 94 |
| CN(C)C(c1cccc(F)c1)C1CCC(CNC(=O)COCCN2CCN(S(=O)(=O)c3ccccc3)CC2)CC1 (stereo not drawn) [Example 308] | 17 |
| CN(C)C(c1cccc(F)c1)C1CCC(CNC(=O)COC2CCCN(S(=O)(=O)c3ccccc3)C2)CC1 (stereo not drawn) [Example 309] | −2 |
| CCN(CCOCC(=O)NCC1CCC(C(c2ccc(Cl)cc2)N(C)C)CC1)S(=O)(=O)c1c(C)cc(OC)c(C)c1C (stereo not drawn) [Example 310] | 33 |
| COc1ccc(S(=O)(=O)N2CCCCC2COCC(=O)NCCC2CCC(C(c3ccc(Cl)cc3)N(C)C)CC2)cc1 (stereo not drawn) [Example 311] | 64 |
| COc1ccc(S(=O)(=O)N2CCCCC2CCOCC(=O)NCC2CCC(C(c3ccc(Cl)cc3)N(C)C)CC2)cc1 (stereo not drawn) [Example 312] | 31 |
| COc1ccc(S(=O)(=O)N2CCCC2COCC(=O)NCC2CCC(C(c3cccc(F)c3)N(C)C)CC2)cc1 (stereo not drawn) [Example 313] | 31 |
| CN(C)C(c1ccc(Cl)cc1)C1CCC(CNC(=O)COCCN(C)S(=O)(=O)c2cccc(C(F)(F)F)c2)CC1 (stereo not drawn) [Example 314] | 13 |
| COc1cc(C)c(S(=O)(=O)N(C)CCOCC(=O)NCCC2CCC(C(c3ccc(Cl)cc3)N(C)C)CC2)c(C)c1C (stereo not drawn) [Example 317] | 18 |

| SMILES | B1R Ant. r [10 μM] % Inhibition [%] |
| --- | --- |
| CN(C)C(c1ccc(Cl)cc1)C1CCC(CNC(=O)COCCN(C)S(=O)(=O)c2c(Cl)cc(Cl)cc2Cl)CC1 (stereo not drawn) [Example 318] | 3 |
| COc1cc(C)c(S(=O)(=O)N2CCC(CCOCC(=O)NCC3CCC(C(c4cccc(F)c4)N(C)C)CC3)CC2)c(C)c1C (stereo not drawn) [Example 319] | 11 |
| COc1cc(C)c(S(=O)(=O)N2CCN(CCOCC(=O)NCCC3CCC(C(c4ccc(Cl)cc4)N(C)C)CC3)CC2)c(C)c1C (stereo not drawn) [Example 320] | −8 |
| COc1ccc(S(=O)(=O)N2CCCCC2COCC(=O)NCC2CCC(C(c3ccc(Cl)cc3)N(C)C)CC2)cc1 (stereo not drawn) [Example 321] | 77 |
| COc1ccc(S(=O)(=O)N2CCCCC2COCC(=O)NC2CCC(C(c3cccc(F)c3)N(C)C)CC2)c(OC)c1 (stereo not drawn) [Example 322] | 6 |
| COc1ccc(S(=O)(=O)N2CCC(OCC(=O)NC3CCC(C(c4cccc(F)c4)N(C)C)CC3)C2)cc1OC (stereo not drawn) [Example 323] | 23 |
| COc1ccc(S(=O)(=O)N(C)CCOCC(=O)NCC2CCC(C(c3ccc(Cl)cc3)N(C)C)CC2)cc1 (stereo not drawn) [Example 324] | 48 |
| CN(C)C(c1cccc(F)c1)C1CCC(CCNC(=O)COCCN2CCN(S(=O)(=O)c3ccccc3)CC2)CC1 (stereo not drawn) [Example 325] | 6 |
| CN(C)C(c1cccc(F)c1)C1CCC(CCNC(=O)COC2CCCN(S(=O)(=O)c3ccccc3)C2)CC1 (stereo not drawn) [Example 326] | −6 |
| CCN(CCOCC(=O)NCC1CCC(C(c2ccc(F)cc2)N(C)C)CC1)S(=O)(=O)c1c(C)cc(OC)c(C)c1C (stereo not drawn) [Example 327] | 68 |
| COc1ccc(S(=O)(=O)N2CCCCC2COCC(=O)NCC2CCC(C(c3cccc(F)c3)N(C)C)CC2)cc1OC (stereo not drawn) [Example 329] | 9 |
| CN(C)C(c1ccc(F)cc1)C1CCC(NC(=O)COC2CCN(S(=O)(=O)c3cccc(C(F)(F)F)c3)C2)CC1 (stereo not drawn) [Example 330] | 16 |
| CN(C)C(c1ccc(Cl)cc1)C1CCC(CNC(=O)COC2CCN(S(=O)(=O)c3cccc(C(F)(F)F)c3)C2)CC1 (stereo not drawn) [Example 331] | 44 |
| Cc1cc(C)c(S(=O)(=O)N2CCC(OCC(=O)NC3CCC(C(c4ccc(F)cc4)N(C)C)CC3)C2)c(C)c1 (stereo not drawn) [Example 332] | 32 |
| CN(C)C(c1cccc(F)c1)C1CCC(CNC(=O)COCCC2CCN(S(=O)(=O)c3ccccc3)CC2)CC1 (stereo not drawn) [Example 333] | 15 |
| CN(C)C(c1ccc(F)cc1)C1CCC(CNC(=O)COCCN(C)S(=O)(=O)c2c(Cl)cccc2Cl)CC1 (stereo not drawn) [Example 334] | 83 |
| CN(C)C(c1cccc(F)c1)C1CCC(NC(=O)COC2CCN(S(=O)(=O)c3ccccc3)CC2)CC1 (stereo not drawn) [Example 335] | 2 |
| CN(C)C(c1ccc(F)cc1)C1CCC(NC(=O)COCCN(Cc2ccccc2)S(=O)(=O)c2ccccc2)CC1 (stereo not drawn) [Example 336] | 8 |
| CN(C)C(c1ccc(F)cc1)C1CCC(CCNC(=O)COCC2CCCCN2S(=O)(=O)c2ccc(Cl)c(Cl)c2)CC1 (stereo not drawn) [Example 337] | −23 |
